One may read the pEC50 as the negative decadic logarithm of the EC50, by convention in mol/L.

The record followed here is patent EP3865489A1, “SPIROCYCLIC INHIBITORS OF HEPATITIS B VIRUS” (priority 2020, dated 2021).

pEC50: −log10 of the molar value. Where only a bound is given, the exact number is not on record here.

This assay deals with HBV. Briefly: Anti-HBV activity in vitro: extracellular HBV DNA quantified by direct qPCR in HepAD38 cells. In kind it is cell-based. As to conditions: Hepatitis B virus, doxycycline-free medium, 96 hours at 37°C, reported as EC50 threshold value, read-out: HBV inh EC50. An excerpt:
HepAD38 cell line (Ladner et al., Antimicrob Agents Chemother, 1997, 41, 1715-20) was used for HBV inhibition assays. HepAD38 is a subclone, derived from Hepatoblastoma cell line HepG2 (ATCC® Number: HB-8065™), that expresses HBV genome under the transcriptional control of a tetracycline-responsive promoter in a TET-OFF system: addition of tetracycline (TET) or doxycycline suppresses HBV replication, while its removal switches on the process allowing HBV viral particles release in the cell supernatant. HepAD38 cell line is maintained in DMEM/F12, supplemented with 10% of fetal bovine serum, 1% of glutamine, 1% of penicillin/streptomycin, 0.4 mg/ml G418 and 0,3 ug/ml tetracycline. For the HBV inhibition assay, doxycycline-free medium is used in order to allow virion production.
HBV inhibition activity in vitro was performed in 96 multiwell plates. During the initial (primary) screening, compounds were first tested in triplicates at concentrations of 0.02 µM, 0.1µM, 0.5µM and 1µM. For selected compounds, an 8-point dose-response curve was obtained using 1:2 serial dilutions (starting from 0.01µM, 0.1µM, 0.4µM or 5 µM, depending on the degree of inhibition observed during the primary screening). From the dose-response curves, half maximal effective concentration (EC50) could be calculated (see also below).
In more detail, compounds - typically dissolved in DMSO stock solutions - were diluted to 2x the final desired concentration in 100 µl of the above medium (without doxycycline) and plated in three replicates in the 96-well plates. […]
Plates were then incubated 96 hours at 37°C and then subjected to cell viability assays and extracellular HBV quantification, in order to evaluate both the cytotoxic potential and the antiviral activity of compounds. Cytotoxicity was assessed by a commercial fluorescence assay that measures the metabolic activity of cells, directly related to cell viability (Cell Titer Blue, Promega). Anti-HBV activity was evaluated by quantification of extracellular HBV DNA with direct qPCR. […]
On the technique in general: In qPCR the cycle at which signal appears reflects the starting amount.
For `C[C@H](NC(=O)C(=O)N1CCC2(COc3c(cn(C)c3C(=O)Nc3ccc(F)c(F)c3)S(=O)(=O)N2)C1)C(F)(F)F` (stereo in doubt) [Example E1, N-(3,4-difluorophenyl)-7'-methyl-1-(2-oxo-2-(((S)-1,1,1-trifluoropropan-2-yl)amino)acetyl)-2'H,4'H,7'H-spiro[pyrrolidine-3,3'-pyrrolo[3,4-b][1,4,5]oxathiazepine]-6'-carboxamide 1',1'-dioxide], the pEC50 was more than 6.30.

As for `C[C@H](NC(=O)C(=O)N1CCC2(COc3c(c(Cl)n(C)c3C(=O)Nc3ccc(F)c(F)c3)S(=O)(=O)N2)C1)C(F)(F)F` (stereo in doubt) [Example E3, 8'-chloro-N-(3,4-difluorophenyl)-7'-methyl-1-(2-oxo-2-(((S)-1,1,1-trifluoropropan-2-yl)amino)acetyl)-2'H,4'H,7'H-spiro[pyrrolidine-3,3'-pyrrolo[3,4-b][1,4,5]oxathiazepine]-6'-carboxamide 1',1'-dioxide], the pEC50 was more than 6.30.

Regarding `Cc1nnc(C(=O)N2CCC3(COc4c(cn(C)c4C(=O)Nc4ccc(F)c(F)c4)S(=O)(=O)N3)C2)o1` (stereo not drawn) [Example E2, N-(3,4-difluorophenyl)-7'-methyl-1-(5-methyl-1,3,4-oxadiazole-2-carbonyl)-2'H,4'H,7'H-spiro[pyrrolidine-3,3'-pyrrolo[3,4-b][1,4,5]oxathiazepine]-6'-carboxamide 1',1'-dioxide], the pEC50 was more than 6.30.
